According to patent US20240165099A1, “METHODS FOR THE TREATMENT AND PREVENTION OF DISEASES OR INFECTIONS WITH MCP-1 INVOLVEMENT BY ADMINISTRATION OF TAFENOQUINE” (60 DEGREES PHARMACEUTICALS LLC, priority 2022, published 2024):

Experiments:
in vitro = conditions: African green monkey, CC50, 4-day test, mock infected Vero E6 cells
Vero E6 cells = conditions: 4-day test, mock infected Vero E6 cells
Babesia = conditions: mice; single doses for tafenoquine; cited from earlier work
Pneumocystis = conditions: mice; Bartlett et al. 1991; cited from earlier work
SARS-CoV-2 [1] = assay: Nasopharyngeal viral load change from baseline, regression analysis; type: in vivo, human; conditions: Log10 viral copy number/ml; baseline through Day 5; P 0.8650
Description: NP swabs were collected at Baseline and Day 5 and Log10 viral copy number/ml was determined utilizing the standard commercially available assay from Eurofins. Only samples from patients where valid baseline and Day 5 results were obtained were analyzed. Samples with values below the dynamic range of the assay were assigned a value equivalent to the detection limit. Samples with […] were assigned a value equivalent to half the detection limit. Viremia change from baseline was calculated by subtracting log 10 Day 5 copy number from the log 10 baseline copy number. Log10 Baseline and change from baseline values were used in the analyses.
Multivariate regression analysis (performed utilizing the standard built-in program in Graphpad Prism 9.3.1) was used to analyze the following dependent variables: Change in NP viral load from baseline through Day 5 (Regression 1) and total anti SARS-CoV-2 antibody change from baseline through Day 14 (Regression 2). The dependent variable data were tested to ensure that they passed at least three of four tests of normality (Anderson-Darling, D'Agostino-Pearson, Shapiro-Wilk and Kolmogorov-Smirnov tests) according to the standard built-in programs in GraphPad. The same independent variables described in Example 6 were utilized. […]

[2] = doses of up to 1200 mg over three days; Green et al 2014; cited from earlier work
SARS-CoV-2 [3] = type: cell-based; conditions: calculated relative to the CC50 for the 4-day test
[4] = in vivo; cited from earlier work
[5] = test system: blood stages of P. falciparum; conditions: Baird et al. 2002; McCarthy et al. 2019; cited from earlier work
COVID-19 disease [6] = assay: Phase II clinical trial, time to clinical recovery in mild-moderate COVID-19; type: in vivo, human
Source text: Laboratory endpoint and patient-level individual symptom data were collected in that study, have not been reported elsewhere, and form the basis for surprising findings about the therapeutic and mechanistic effects of tafenoquine described herein.
Longitudinal aggregate symptom data for individual patients from Dow and Smith (2022) were examined to determine the number of days required before each patients reported an aggregate symptom score of 2 for four days of more for the first time. This endpoint was not included as a pre-specified analysis in the original study design, and was only recently confirmed to be an endpoint of interest to regulars in mild-moderate COVID-19 disease in standard risk patients. […] A survival curve was generated, and data were analyzed using Graphpad Prism. […] At Day 28, which was the last day of the study, the proportion of patients with persistent COVID-19 symptoms was lower in the tafenoquine arm.

[7] = test system: total anti SARS-CoV-2 spike protein antibody; type: in vivo, human
COVID-19 disease [8] = conditions: mild-moderate COVID-19; exploratory analyses; P<0.02; Dow and Smith 2022; cited from earlier work
[9] = test system: Monocyte chemotactic protein 1 (MCP-1); type: in vivo, human
[10] = predicted Day 5 values, all group comparisons vs placebo, independent of vaccination or baseline MCP-1

In the case of `CCN(CCO)CCCC(C)Nc1ccnc2cc(Cl)ccc12` (centres unmarked) [Hydroxychloroquine], the CC50 (in vitro) was ~55 µM and the CC50 (Vero E6 cells) was 67 µM.
For `COc1cc(NC(C)CCCN)c2ncccc2c1` (centres unmarked) [Primaquine], the “dose that cleared Babesia parasitemia” value (Babesia) is listed as 100 mg/kg and the “cure of Pneumocystis infections” value (Pneumocystis) is listed as “must be combined with clindamycin”.
For `COc1cc(C)c2c(Oc3cccc(C(F)(F)F)c3)c(OC)cc(NC(C)CCCN)c2n1` (centres unmarked) [Tafenoquine], the “Regression 1: NP Viral Load CFB, Beta for Treatment (TQ = 1, PL = 0)” value (SARS-CoV-2 [1]) is listed as −0.0735/, the “effect on upper limit of 90% confidence interval of the QTC interval” value [2] is listed as “not found to increase” and the selectivity index (SARS-CoV-2 [3]) is listed as 14.3. The half-life [4] was 14 days, the “activity against the blood stages of P. falciparum” value [5] was “quite effective” and the “median time to clinical recovery” value (COVID-19 disease [6]; COVID-19 patients, 200 mg on Days 1, 2, 3 and 10, sustained recovery for four days or more, placebo 16 days) was 13 days. The “proportion of patients with persistent COVID-19 symptoms at Day 28” value (COVID-19 disease [6]; tafenoquine arm vs placebo, Day 28) was “lower”, the “effect on total anti-SARS-CoV-2 antibody generation” value ([7]; P=0.546 as printed) was “did not affect” and the “Regression 2: Antibodies CFB (unvaccinated), Beta for Treatment” value ([7]; in vivo) was −0.671/. For the same compound, the “recovery from fever, cough and shortness of breath” value (COVID-19 disease [8]) was “accelerate recovery”, the “dose that cleared Babesia parasitemia” value (Babesia) was 20 mg/kg and the “Regression 1: MCP1 Day 5 CFB (Multivariate), Beta for Treatment (TQ = 1, PL = 0)” value ([9]; Day 5 value − Baseline value, P 0.0093) was −74.4/. The “Regression 2: MCP1 Day 14 CFB for high baseline MCP1, Beta for Treatment” value ([9]; baseline MCP-1 exceeding 350 units/ml, P 0.3304) was 78.9/, the “Regression 3: MCP1 Day 14 CFB for low baseline MCP1, Beta for Treatment” value ([9]; baseline MCP-1 less than 350 units/ml, P 0.2356) was −35.0/ and the “Regression: MCP1 Day 14 CFB (rank-transformed), Beta for Treatment” value ([9]; human, in vivo) was 0.584//. For the same compound, the “reduction in Day 5 MCP-1 (absolute)” value [9, 10] was “at least 41”, the “reduction in Day 5 MCP-1 (percent)” value [9, 10] was ≥ 10% and the “Regression 1: MCP1 Day 5 (Univariate), Beta for Treatment” value ([9]; univariate, P 0.2548) was −45.2/. The “cure of Pneumocystis infections” value (Pneumocystis) was “can be administered as monotherapy to cure”.
